Assays:
[1] = organism: Sus scrofa; experiment: Concentration required for relaxation of PGF2-alpha (3 uM)-precontracted porcine pulmonary arteries; activity expressed as pD2
[2] = organism: Sus scrofa; experiment: Concentration required for relaxation of isolated porcine coronary arteries; activity expressed as pD2; assay type: functional

Compound | pD2 [1] | pD2 [2]
CC(C)N(CC(O)COc1cccc2ccccc12)C(=O)C(C)(C)CO[N+](=O)[O-] (centres undefined) | 5.4 | 
CC(C)(CO[N+](=O)[O-])C(=O)O | 4.69 | 
CC(=O)N[C@@H](C(=O)N(CC(O)COc1cccc2ccccc12)C(C)C)C(C)(C)SN=O (some centres undefined) | 6.94 | 
CC(=O)N[C@@H](C(=O)O)C(C)(C)SN=O |  | 6.69

— ChEMBL document CHEMBL1137883, “Synthesis and vasorelaxant properties of hybrid molecules out of NO-donors and the beta-receptor blocking drug propranolol” (2004)
